The subject of this data set is male Wistar rats. In words: Elevated plus-maze in rats. The data set is classed as in vivo, rat. The note with it: for Open Entries / Closed Entries / Total Distance Travelled (m) / Total Entries / % Open Time / % Open Entries / Time in open arms / Time in closed arms: rats, mean; for Open Entries: SOLVENT mean 2.57; for Closed Entries: SOLVENT mean 7.14; for Total Distance Travelled (m): SOLVENT mean 9.30; for Total Entries: SOLVENT mean 9.71; for % Open Time: SOLVENT mean 20.43; for % Open Entries: SOLVENT mean 25.57; for Time in open arms: SOLVENT mean 50.29; for Time in closed arms: SOLVENT mean 196.29. How it is done: Except where noted, the methods used were those of Miroslav M., et al., (2004) Pharmacology, Biochemistry and Behavior 79: 279-290. Experiments were carried out on male Wistar rats (Military Farm, Belgrade, Serbia and Montenegro), weighing 200-240 g. All procedures in the study conformed to EEC Directive 86/609 and were approved by the Ethical Committee on Animal Experimentation of the Medical Faculty in Belgrade. The rats were housed in transparent plastic cages, six animals per cage, and had free access to pelleted food and tap water before and after drug administration. The temperature of the animal room was 22±1° C., the relative humidity 40-70%, the illumination 120 1× and the 12/12-h light/dark period (light on at 06:00 h). All handling and testing took place during the light portion of the cycle. Throughout the study the animals were used only once.
Midazolam and flumazenil were generously donated from F. Hoffman-La Roche (Basel, Switzerland). Zolpidem was purchased from Toronto Research Chemicals (North York, Canada) and DMCM from Research Biochemicals (Natick, Mass., USA). All drugs were dissolved/suspended with the aid of sonication in a solvent containing 85% distilled water, 14% propylene glycol and 1% Tween 80™, and were administered intraperitoneally, in a volume of 1 ml/kg, 20 min before testing. Doses are expressed as the base forms of the drugs. In the cases of combined treatment, agonists were administered at separate sites, immediately after the antagonist. Each animal received a total volume of 2 ml/kg of compounds tested or appropriate vehicles, at two different injection sites.
The test apparatus was constructed of sheet metal, with a black rubber floor. It consisted of a maze elevated to a height of 50 cm with two open (50×10 cm) and two enclosed arms (50×10×40 cm), connected by junction area (central platform) measured 10×10 cm. Although the floor was rubberized, a ledge of sheet metal (0.3 cm high) surrounding the open arms was added, to avoid rats falling off. The illumination in the experimental room consisted of one red neon tube fixed on the ceiling, giving light intensity of 10 1× on the surface of the arms. The experiments were carried out during the diurnal phase (between 08:00 and 12:00 h). At the beginning of the experiment, rats were placed in the centre of the maze, facing one of the enclosed arms and observed for 5 min. The observer sat in the same room 1 m from the maze. After each trial, the maze was cleaned with dry and wet towels. Throughout the study, the number of rats per treatment group was 8-14. Each experiment was run over 4 consecutive days, with three control rats per day; as there was no difference in plus-maze activity among control subgroups, they were pooled in a single control group (n=12).
All numerical data presented in the figures were given as the mean±S.E.M. Each dose-response curve (agonist or antagonist alone or agonist+antagonist) was assessed by a one-way ANOVA. If the ANOVA was significant, each treatment condition was compared with the appropriate solvent control by a Dunnett's test (a=0.05). In case of significant effect in the number of enclosed arm entries, an analysis of covariance (ANCOVA) was performed in the anxiety-related parameters using the number of enclosed arm entries as covariate. Interactions between the agonists and antagonists were analyzed separately with a two-way ANOVA [factors: agonist dose versus cotreatment (an antagonist or saline)]; pairwise comparisons for the assessment of the antagonist influence on the agonist effects were conducted by Tukey's test, one of the methods recommended even in the absence of an overall significant F-test (Wilcox R R. New designs in analysis of variance. Annu Rev Psychol 1987; 38: 29-60). Statistical analyses were performed with commercial statistical software for PC, Stat for Windows R. 5.0.

Where [1] appears, read: SH-053-S 20 mg/kg ip, N 6, t test p = 0.668.
Setting [2] is: SH-053-S 30 mg/kg ip, N 7, t test p ≦ 0.05.

Consider `C#Cc1ccc2c(c1)C(c1ccccc1)=NC(C)c1c(C(=O)OCC)ncn1-2` (stereo not drawn) [SH-053-S—CH3, 8-Ethynyl-4-methyl-6-phenyl-4H-2,5,10b-triaza-benzo[e]azulene-3-carboxylic acid ethyl ester], for which the “Open Entries” value by setting is: under setting [1], 3.00; under setting [2], 4.57. Moreover, the “Closed Entries” value turned out to be 5.33 (SH-053-S 20 mg/kg ip, N 6, t test p = 0.059) and 6.29 (SH-053-S 30 mg/kg ip, N 7, t test p = 0.481). Besides, the “Total Distance Travelled (m)” value runs as follows: (SH-053-S 20 mg/kg ip, N 6, t test p = 0.145) 7.49 m; (SH-053-S 30 mg/kg ip, N 7, t test p = 0.910) 9.48 m. The “Total Entries” value runs as follows: (SH-053-S 20 mg/kg ip, N 6, t test p = 0.349) 8.33; (SH-053-S 30 mg/kg ip, N 7, t test p = 0.525) 10.86. Also, the “% Open Time” value runs as follows: (SH-053-S 20 mg/kg ip, N 6, t test p = 0.426) 27.50%; under setting [2], 36.00%. In addition, the “% Open Entries” value came out at 34.17% (SH-053-S 20 mg/kg ip, N 6, t test p = 0.265) and 43.71% under setting [2]. Besides, the “Time in open arms” value is, setting by setting: under setting [1], 61.83; under setting [2], 93.71. The “Time in closed arms” value runs as follows: (SH-053-S 20 mg/kg ip, N 6, t test p ≦ 0.05) 144.67; (SH-053-S 30 mg/kg ip, N 7, t test p = 0.116) 164.71. The “effects on locomotor activity (summary of FIG. 1, FIG. 2, Tables 3-6)” value (at the dose tested) was “no measurable effects on locomotor activity”. In addition, under “rat, in vivo”, the “anxiolytic activity (summary of FIG. 1, FIG. 2, Tables 3-6)” value is “has anxiolytic activity”.
